Assay [1] concerns MCF-7 cells. The experiment in a line: FACS analysis of CD44high CD24low CSC-like subpopulation, MCF-IM model (PMA-stimulated MCF-7). In kind it is cell-based, human. As to conditions: NCD38 5 μM for 17 hr prior to PMA 0.65 ng/μl for 60 hours, FIGS. 6A and B. The protocol:
MCF-7 cells were seeded one day before stimulation at a set density according to the experimental demand. Potential inducers of EMT were tested including Phorbol 12-Myristate 13-acetate (PMA) (Sigma-Aldrich, St. Louis, Mo.), and TGF β (R&D systems, Minneapolis, Minn.) at various concentrations and incubation length as specified in Table 6.
Cells from each well/flask were harvested by means of trypsin treatment followed by two washes with PBS. Washed cells then re-suspended in an antibody cocktail consisting anti-CD44-APC, anti-CD24-PE antibodies (details in Table 5) and Hoechst 33258 dye (final dilution of 1:1000) (Invitrogen, Carlsbad, Calif.) in 1% FCS-PBS solution. Cells re-suspended in antibody cocktail were incubated for 20 minutes at 4° C. Cells were next washed twice with PBS and re-suspended in 1% FCS-PBS solution (volume based on cell number) and kept on ice until analyzed by FACS. […]
Flow Cytometry data was produced using either BD FACS LSR Flow Cytometer (Becton Dickinson Biosciences) or BD FACS Aria™ II Flow Cytometer (Becton Dickinson Biosciences) and analyzed using the data acquisition software CellQuest Pro (Becton Dickinson Biosciences) and FlowJo (Tree Star Inc., Ashland, Oreg.) software at the MCRF facility, JCSMR, ANU, Canberra, Australia. […]

Assay [2] deals with MDA-MB 231 cells. The experiment in a line: FACS analysis of CD44high CD24low CSC subpopulation, Basal/metastatic model. In kind it is cell-based, human. Conditions: NCD38 5 μM, FIGS. 7A and B. The protocol: Cells from each well/flask were harvested by means of trypsin treatment followed by two washes with PBS. Washed cells then re-suspended in an antibody cocktail consisting anti-CD44-APC, anti-CD24-PE antibodies (details in Table 5) and Hoechst 33258 dye (final dilution of 1:1000) (Invitrogen, Carlsbad, Calif.) in 1% FCS-PBS solution. Cells re-suspended in antibody cocktail were incubated for 20 minutes at 4° C. Cells were next washed twice with PBS and re-suspended in 1% FCS-PBS solution (volume based on cell number) and kept on ice until analyzed by FACS. Forward scatter (FSC) and side scatter parameters were selected with FITC fluorochrome excited by 488 nm argonion laser, PE fluorochrome excited by 488 nm and Hoechst fluorochrome excited by 350 nm helium-cadmium UV laser.
Flow Cytometry data was produced using either BD FACS LSR Flow Cytometer (Becton Dickinson Biosciences) or BD FACS Aria™ II Flow Cytometer (Becton Dickinson Biosciences) and analyzed using the data acquisition software CellQuest Pro (Becton Dickinson Biosciences) and FlowJo (Tree Star Inc., Ashland, Oreg.) software at the MCRF facility, JCSMR, ANU, Canberra, Australia. Single colour controls were used to set compensation parameters. Isotype controls were used for all corresponding primary antibodies in each experiment. […]

In assay [3] the test system is MCF-7 cells. The experiment in a line: Mammosphere assay. In kind it is cell-based, human. Conditions: MCF-IM model, NCD38 5 μM for 17 hr prior to PMA 0.65 ng/ml for 6 days, mammospheres larger than 60 μm counted. The protocol: The following mammosphere culture media components were purchased from StemCell Technologies Inc., BC, Canada: Mammocult Basal medium (Human) (catalogue number-05621), Mammocult Proliferation Supplements (Human) (catalogue number-05622), heparin (catalogue number-07904) and hydrocortisone (catalogue number-[…]). Hydrocortisone powder was freshly dissolved into mammocult basal medium to get 10^−4M solution on the day of experiment. 50 mL of Mammocult complete media was then prepared by addition of 45 mL Mammocult basal medium, 5 mL mammocult proliferation supplements, 100 μL of the 0.2% heparin stock, 500 μL of 10^−4M stock of hydrocortisone and 50 μL of the PNS. Mammocult complete media was either used on same day or stored for not more than 7 days at 4° C.
MCF-7 cells were grown in a 175 cm^2 cell culture flask and harvested using a cell scraper (Zellschaber, Switzerland) or FACS sorted as specified below. Importantly trypsin treatment was never used for harvesting cells as it interferes with the mammosphere assay. Harvested cells were then re-suspended in 1 mL mammocult complete media and centrifuged at 500×g for 3 minutes at 20° C. The cell pellet was then re-suspended in 1 mL mammocult complete media before counting the cells on the Vi-CELL counter. […] Mammospheres larger than 60 μm were counted per well on day 7 and pictures were taken with an Olympus microscope. […]

In assay [4] the test system is MDA-MB 231 cells. The experiment in a line: Phase contrast microscopy of EMT/MET, Basal/metastatic model. In kind it is cell-based, human. Conditions: NCD38 5 μM, FIG. 7C. The protocol: Phase contrast microscopy was utilized for EMT and wound healing assays under 10× or 20× magnification of Olympus Fluorescence 1×71 microscope. Images were captured and analyzed as described above except that wound healing assay pictures were also analyzed by Image J software (Free software in Public domain developed by NIH).

For assay [5], the system named is MDA-MB-231 cells. The assay is described as follows: In vivo murine xenograft model, CSC subpopulation of tumors (FACS, CD44 mRNA). Details: species or system BALB/c female nude mice. Conditions: pargyline along with docetaxel. The protocol:
(§1) To monitor the effect of LSD1 inhibitors in vivo on tumor recurrence, in vivo murine xenograft model of breast cancer recurrence was used. The MDA-MB 231 cell line model, which is one of the most robust and well-established models was used in 6 weeks old BALB/c female nude mice. 5×10^6 MDA MB 231 cells were injected in the mammary fat pad of each mouse. […] Once the tumors reach 50 mm^3 volume size (determined by caliper measurement), treatments were initiated. Mice were monitored until tumors reach 500 mm^3 and sacrificed for collection of tumors. Each treatment group consisted 14 mice each (5 mice for tumor growth curve+3 mice each for tumor collection at 3 time points-treatment start day-week 0, chemotherapy tumor reduction-approx. week 4 and until tumor reach 500 mm^3 approx. week 7). Tumor volumes were measured every week and three mice from each group were sacrificed for IHC, FACS, and RNA extraction at above mentioned three time points.
At week 7 post treatment, the remaining tumor samples were collected for flow cytometry with CD44, CD24 and Hoechst staining. Remaining sample was used for RNA extraction.
1. Tumors were collected in 5 mL of DMEM supplemented with 2.5% FCS in 15 mL tubes.
8. A total number of 2×10^5 cells were stained for CD44-APC, CD24-PE and Hoechst. […]

Assay [6] has as its system MDA-MB-231 cells. The experiment in a line: In vivo murine xenograft model, tumor size. Details: species or system BALB/c female nude mice. The protocol: as §1
5. Mice were then injected with 50 μL of the Matrigel™+5×10^6 cell suspension in PBS using 26″ needles and isoflurane as an anesthetic. Each 50 μL of the mixture contains 2×10^6 MDA-MB-231 cells.
7. Measurements for tumor volume began at day 7 post injection of MDA-MB-231. Then the tumor volumes were measured daily till 15 May 2014.
Treatment of mice started at day 16 post injection of MDA-MB-231, where tumors roughly reached a volume of 50 mm^3.
Group B: 4 mg/kg of docetaxel (11 mice)
Group C: 100 mg/kg of pargyline (11 mice)
Group D: 4 mg/kg of docetaxel+100 mg/kg of pargyline (11 mice)

“Also recorded” adds a separate entry of the source.

Turning to `O=C(N[C@@H](CCCCN[C@@H]1C[C@H]1c1ccccc1)C(=O)NCc1cccc(Cl)c1)c1ccc(-c2ccccc2)cc1.O=C(O)C(F)(F)F` [NCD38], the results for the “CSC formation (CD44high CD24low CSC-like subpopulation) monitored by FACS” value in the assay on MCF-7 cells [1] and in the assay on MCF-7 cells [1] (listed as NCD-38) were “inhibits CD44 high CD24 low-CSC-like subpopulation” and “inhibition CSC formation”, respectively. For the same compound, the “CSC formation (CD44high CD24low CSC-like subpopulation) by FACS” value in the assay on MDA-MB 231 cells [2] is listed as “inhibits CD44 high CD24 low-CSC-like subpopulation”; in the assay on MDA-MB 231 cells [2] (listed as NCD-38), “decrease of CSC formation”. Further, the “CSC formation monitored by mammosphere assay” value is given as “reduce mammosphere formation” in the assay with MCF-7 cells [3] and “inhibition CSC formation” in the assay with MCF-7 cells [3] (listed as NCD-38). The “mesenchymal to epithelial transition / EMT (phase contrast microscopy)” value is reported as “inhibit EMT” in the assay with MDA-MB 231 cells [4] and “conversion of mesenchymal cells in to epithelial cells” with MDA-MB 231 cells [4] (listed as NCD-38).

`C#CCN(C)Cc1ccccc1` [pargyline]: the “CSC subpopulation measured by transcript (CD44 mRNA expression of dissected tumors)” value in the assay with MDA-MB-231 cells [5] (real-time PCR, FIG. 10B) is given as “reduced CSC subpopulation”. Further, in the assay with MDA-MB-231 cells [5] (seven weeks of treatment, FIG. 10A), the “CSC subpopulation of tumors measured by FACS” value is recorded as “reduced CSC subpopulation; also recorded: reduces cancer stem cells”. Also, in the assay on MDA-MB-231 cells [6] (pargyline 100 mg/kg in combination with docetaxel 4 mg/kg, mice xenograft, FIG. 8 (week four), FIG. 9), the tumor size result was “reduced tumor size; also recorded: reduces size of tumor”. In the assay with MDA-MB-231 cells [6] (pargyline in combination with docetaxel, after seven weeks of treatment initiation, FIG. 9B), the tumor volume result was “reduces volume and weight of tumor”. Besides, the tumor weight result in the assay on MDA-MB-231 cells [6] (pargyline in combination with docetaxel, after seven weeks of treatment, FIG. 9A) is “reduces volume and weight of tumor”.

Values taken from US10220053B2, “Methods and compositions for modulating cancer stem cells” (University of Canberra, priority 2013, dated 2019).
